The values below come from ChEMBL document CHEMBL1158480, “In silico prediction of volume of distribution in human using linear and nonlinear models on a 669 compound data set” (J Med Chem, 2009).

Series [1] can be described thus: Volume of distribution in human at 100 mg administered 30 mins infusion. Type of series: ADME, organism-based. The following applies: in vivo, iv.
Series [2] in a line: Volume of distribution at steady state in human at 25 mg, iv. Type of series: ADME, organism-based. The note with it: in vivo, read-out: Vdss.
The nature of series [3]: Volume of distribution at steady state in human. The note with it: in vivo.
Series [4] can be described thus: Volume of distribution at steady state in human at 150 mg, iv. The following applies: in vivo, read-out: Vdss. The series is classed as ADME, organism-based.
Series [5] is described as follows: Volume of distribution at steady state in human at 2.5 mg, iv administered as bolus dose. The series is classed as ADME, organism-based. The following applies: in vivo, read-out: Vdss.
A short description of series [6]: Volume of distribution at steady state in human at 100 mg, iv. The note with it: in vivo, read-out: Vdss. Type of series: ADME, organism-based.
Series [7] is described as follows: Clearance in human at 200 ug. The series is classed as ADME, organism-based. The note with it: in vivo.
The nature of series [8]: Volume of distribution at steady state in human at 50 mg, iv. The series is classed as ADME, organism-based. The following applies: in vivo, read-out: Vdss.
Series [9] can be described thus: Volume of distribution at steady state in human at 1 mg/kg, iv administered 20 mins infusion. Type of series: ADME, organism-based. Further details: dose 1 mg/kg, route intravenous. The following applies: in vivo, read-out: Vdss.
A short description of series [10]: Volume of distribution at steady state in human at 15 ng/kg/min, iv administered 150 mins infusion. The series is classed as ADME, organism-based. The following applies: in vivo, read-out: Vdss.
The nature of series [11]: Volume of distribution at steady state in human at 130 mg administered 90 mins infusion. Type of series: ADME, organism-based. The following applies: in vivo, iv, read-out: Vdss.
Series [12] can be described thus: Volume of distribution at steady state in human at 1 mg/kg. The following applies: in vivo, read-out: Vdss. Also on record: dose 1 mg/kg. The series is classed as ADME, organism-based.
Series [13] in a line: Volume of distribution at steady state in human administered 1 to 12 g doses with 2 to 3.5 hrs iv infusion. The note with it: in vivo, read-out: Vdss. The series is classed as ADME, organism-based.
Series [14] is described as follows: Volume of distribution at steady state in human at 10 mg, iv. The series is classed as ADME, organism-based. The note with it: in vivo, read-out: Vdss.
Series [15] is described as follows: Volume of distribution at steady state in human at 2.8 mg, iv. The series is classed as ADME, organism-based. The note with it: in vivo, read-out: Vdss.
The nature of series [16]: Mean residence time in human administered three way cross over study in 11, 10 and 12 healthy subjects at 5, 10, 15 mg dose respectively as 1 hr infusion. Type of series: ADME, organism-based. The following applies: in vivo, intravenous.
The nature of series [17]: Clearance in human given 31 administration across 6 doses 2.5 to 25 mg administered 30 mins infusion each dose separated by 13 days. The note with it: in vivo, iv. Type of series: ADME, organism-based.
Series [18] is described as follows: Mean residence time in human given 31 administration across 6 doses 2.5 to 25 mg administered 30 mins infusion each dose separated by 13 days. The series is classed as ADME, organism-based. The note with it: in vivo, iv.
Series [19] in a line: Clearance in human administered three way cross over study in 11, 10 and 12 healthy subjects at 5, 10, 15 mg dose respectively as 1 hr infusion. Type of series: ADME, organism-based. The note with it: in vivo, intravenous.
The nature of series [20]: Half life in human given 31 administration across 6 doses 2.5 to 25 mg administered 30 mins infusion each dose separated by 13 days. Type of series: ADME, organism-based. The note with it: in vivo, iv.
A short description of series [21]: Half life in human administered three way cross over study in 11, 10 and 12 healthy subjects at 5, 10, 15 mg dose respectively as 1 hr infusion. The following applies: in vivo, intravenous. The series is classed as ADME, organism-based.
Series [22] is described as follows: Volume of distribution at steady state in human at 5 mg, iv. The series is classed as ADME, organism-based. The note with it: in vivo, read-out: Vdss.
Series [23] in a line: Volume of distribution at steady state in human at 0.2 mg, iv. Type of series: ADME, organism-based. The note with it: in vivo, read-out: Vdss.
Series [24] can be described thus: Volume of distribution at steady state in human at 0.149 mg/kg, iv. The following applies: in vivo, read-out: Vdss. Also on record: dose 0.149 mg/kg, route intravenous. Type of series: ADME, organism-based.
Series [25] is described as follows: Volume of distribution at steady state in human administered three sequential 4-h infusion at 1, 5 and 15 mg/hr. The note with it: in vivo, iv, read-out: Vdss. The series is classed as ADME, organism-based.
The nature of series [26]: Volume of distribution at steady state in human dosed 1 hr iv infusion. The note with it: in vivo.
Series [27] in a line: Half life in human at 2 mg, iv. Type of series: ADME, organism-based. The following applies: in vivo.
Series [28] is described as follows: Mean residence time in human at 2 mg, iv. The series is classed as ADME, organism-based. The following applies: in vivo.
The nature of series [29]: Clearance in human at 2 mg, iv. Type of series: ADME, organism-based. The note with it: in vivo.
The nature of series [30]: Total clearance in human at 0.1 mg/kg administered 15 mins infusion. The note with it: in vivo, iv. Also on record: dose 0.1 mg/kg. Type of series: ADME, organism-based.
Series [31] is described as follows: Volume of distribution at steady state in human at 0.1 mg/kg administered 15 mins infusion. Type of series: ADME, organism-based. Also on record: dose 0.1 mg/kg. The following applies: in vivo, iv, read-out: Vdss.

As for `CC1(C)[C@@H](O[C@H]2O[C@H](C(=O)O)[C@@H](O)[C@H](O)[C@H]2O[C@H]2O[C@@H](C(=O)O)[C@H](O)[C@@H](O)[C@@H]2O)CC[C@]2(C)[C@H]3C(=O)C=C4[C@@H]5C[C@@](C)(C(=O)O)CC[C@]5(C)CC[C@@]4(C)[C@]3(C)CC[C@@H]12` [ISOGLYCIRRHIZINATE], the Vd in [1] was 0.05 L/kg. For the compound `CC(=O)CC(c1ccc([N+](=O)[O-])cc1)c1c(O)c2ccccc2oc1=O` (stereo not drawn) [ACENOCOUMAROL], the Vd in series [2] came to 0.24 L/kg.

In the case of `C[C@@H]1[C@H](O)[C@@H](C)/C=C/C=C/C=C/C=C/C=C/C=C/C=C/[C@H](O[C@@H]2O[C@H](C)[C@@H](O)[C@H](N)[C@@H]2O)C[C@@H]2O[C@](O)(C[C@@H](O)C[C@@H](O)[C@H](O)CC[C@@H](O)C[C@@H](O)CC(=O)O[C@H]1C)C[C@H](O)[C@H]2C(=O)O` [AMPHOTERICIN B], the Vd in series [3] is 0.62 L/kg. In the case of `COCCOC[C@H](CC1(C(=O)N[C@H]2CC[C@@H](C(=O)O)CC2)CCCC1)C(=O)O` [CANDOXATRILAT], the Vd in series [4] turned out to be 0.25 L/kg.

For `OCCN1CCN(CCCN2c3ccccc3Sc3ccc(C(F)(F)F)cc32)CC1` [FLUPHENAZINE], in series [5], the Vd came to 2.9 L/kg.

`O=C(O)CCCCO/N=C(/c1cccnc1)c1cccc(C(F)(F)F)c1` [RIDOGREL]: the Vd in [6] amounted to 0.43 L/kg.

In turn, `CC(=O)Nc1ccc(C2=NNC(=O)C[C@H]2C)cc1` showed a clearance in series [7] of 33.3 mL/min. Also, in [3], the Vd came to 2.38 L/kg. With `COC(=O)c1cnc2n1CCc1ccccc1C2=C1CCN(CCc2ccc(OCc3ccc4ccccc4n3)cc2)CC1`, in [8], the Vd was determined as 6.03 L/kg. `CO[C@H]1C[C@H](O[C@H]2[C@H](C)[C@@H](O[C@@H]3O[C@H](C)C[C@H](N(C)C)[C@H]3O)[C@@H](C)C[C@@]3(CO3)C(=O)[C@H](C)[C@@H](O)[C@@H](C)[C@@H](C)OC(=O)[C@@H]2C)O[C@@H](C)[C@@H]1O` [OLEANDOMYCIN]: the Vd in series [3] is 0.77 L/kg. On to `CC(=O)N(CCC(CCN1CCCCC1)(C(N)=O)c1ccccc1Cl)C(C)C` (stereo not drawn) [BIDISOMIDE], for which the Vd in series [9] is 2.6 L/kg. `CCCCC[C@H](O)CC[C@@H]1[C@H]2Cc3cccc(OCC(=O)O)c3C[C@H]2C[C@H]1O` [TREPROSTINIL]: in series [10], the Vd came out at 0.23 L/kg. Consider `O=C(O)c1ccc(-n2nc(-c3ccccc3O)nc2-c2ccccc2O)cc1` [DEFERASIROX], for which the Vd in series [11] was determined as 0.2 L/kg. As to `CC(C)(N)CC(=O)N[C@@H]1CCc2ccccc2N(Cc2ccc(-c3ccccc3-c3nnn[nH]3)cc2)C1=O`, the Vd in series [12] was 0.2 L/kg. Regarding `Nc1ccn([C@@H]2O[C@H](CO)[C@@H](O)[C@@H]2O)c(=O)n1` [CYTARABINE], in [13], the Vd was found to be 0.67 L/kg. With `CN(c1nc2ccccc2s1)C1CCN(CC(O)COc2ccc(F)cc2)CC1` (stereo not drawn) [SABELUZOLE], the Vd in series [14] worked out at 5.5 L/kg. On to `CC(C)Oc1ccccc1N1CCN(Cc2cccc(C(=O)N3CCCCC3)c2)CC1` [MAZAPERTINE], for which the Vd in series [15] was 1.54 L/kg.

Take `CN(c1nc2ccccc2s1)C1CCN(C[C@H](O)COc2ccc(F)c(F)c2)CC1` [LUBELUZOLE]: the MRT in series [16] came to 28.7 h; in series [18] it was 23.3 h. Moreover, the values for the clearance in [17] and in series [19] were 1.54 mL/min/kg and 1.8 mL/min/kg, respectively. For the same compound, the figures for the half-life in series [20] and in series [21] were 19.8 h and 23.5 h, respectively. Regarding `Cc1nc2sccn2c(=O)c1CCN1CCC(=C(c2ccc(F)cc2)c2ccc(F)cc2)CC1` [RITANSERIN], the Vd in series [22] amounted to 1.41 L/kg.

In the case of `C[C@@H]1CN([C@H]2CC[C@](C#N)(c3ccc(F)cc3)CC2)CC[C@]1(C(=O)O)c1ccccc1` [LEVOCABASTINE], in [23], the Vd stood at 1.17 L/kg. In the case of `Cc1nc(=O)c(C#N)c(NCc2cccnc2)[nH]1` [PELRINONE], the Vd in series [24] is 0.39 L/kg.

For the compound `COc1ccccc1Oc1c(NS(=O)(=O)c2ccc(C)cn2)nc(-c2ccnc(-c3nnn[nH]3)c2)nc1OCCO` [CLAZOSENTAN], in [25], the Vd was found to be 0.23 L/kg. `C[C@]12CC[C@@H]3c4ccc(O)cc4C[C@@H](CCCCCCCCC[S+]([O-])CCCC(F)(F)C(F)(F)F)[C@H]3[C@@H]1CC[C@@H]2O` (stereo partly drawn) [FULVESTRANT]: the Vd at 1 h in [26] is 4.15 L/kg. In series [27], `CCc1nc2c(N)nc3ccccc3c2n1CCCCNS(C)(=O)=O` [CPG-52852] gave a half-life of 7.1 h. The same compound gave an MRT in [28] of 4.7 h. This compound also showed a clearance in [29] of 7.7 mL/min/kg. `Cc1nccn1CCC(C(N)=O)(c1ccccc1)c1ccccc1` [IMIDAFENACIN]: the clearance in series [30] is 492 mL/min. Further, the Vd in series [31] was determined as 1.51 L/kg.

One may read the clearance as the volume of plasma or blood freed of the substance per unit of time. Low readings indicate inefficient removal, high ones efficient removal. In general, MRT refers to the average time that molecules of a dose stay in the body. As usually defined, the half-life is the time needed for the level to fall by half in the phase considered. Low values mean fast loss, high ones slow loss.
